Here are results for seven compounds from ChEMBL document CHEMBL1150873, “A new lysine derivative and new 3-bromopyrrole carboxylic acid derivative from two marine sponges” (J Nat Prod, 1998).

Converted amounts (≈) assume the structure as drawn.

For one data set, the system named is Artemia. The data set is described as follows: (§1) Toxicity in brine shrimp. It is filed as organism-based. The note with it: in vivo.
Data set [1] is described as follows: as §1. The note with it: artemia, in vivo. It is filed as organism-based.
In another data set the test system is P388. Description: Cytotoxicity against mouse P388 cells. Format: functional, cell-based.

Consider `O=C1CCNC(=O)c2[nH]c(Br)cc21`, for which the Activity entry in the data set with Artemia is “Not Active”.

In the case of `C=C(C)[C@H]1CCC[C@@]2(C)CCC[C@@](C)(SC#N)[C@@H]12`, the LC50 in data set [1] is 50 µg/mL (≈ 190 µM).

Take `O=C1NCC(O)n2cc(Br)cc21` (stereo not drawn): the Activity entry in the data set on Artemia is listed as “Not Active”.

For `O=C(O)/C1=N/CCCC[C@@H](C(=O)O)N1`, the Activity result in the data set on Artemia was “Not Active”.

On to `C=C(C)[C@H]1CCC[C@@]2(C)CCC[C@@](C)(NC=O)[C@@H]12`, for which the LC50 in data set [1] turned out to be 50 µg/mL (≈ 200 µM). Further, the IC50 in the data set on P388 turned out to be 1.2 µg/mL (≈ 4.81 µM).

Compound `[C-]#[N+][C@]1(C)CCC[C@]2(C)CCC[C@H](C(=C)C)[C@@H]21` registered an IC50 with P388 of 8.3 µg/mL (≈ 35.9 µM).

In the case of `O=C1CCNC(=O)c2[nH]ccc21` [ALDISIN], the Activity result in the data set with Artemia is on record as “Not Active”.
